Results published in US12486280B2, “CDK inhibitors and uses thereof” (California Institute of Technology, priority 2018, dated 2025).
Where two headings read alike, the source gives them in different places.

Experiments:
CDK4 = CDK4 (Homo sapiens (Human), UniProt P11802); assay: Cdk4 and 6 Enzymatic Inhibition Assay (radiometric 33PanQinase, Ki determination); type: biochemical
Protocol: (§1) 10 distinct concentrations were prepared, with a dilution endpoint of 6×10^−9 M in 100% DMSO. 100% DMSO was used as a control. 10 μL from each of the serial dilutions were aliquoted into separate wells of a 96-well plate and 90 μL of water were added to each of those wells. The plate was shaken thoroughly, and 5 μL from each of the plate's wells were transferred into wells of the assay plate. The final volume of wells in the assay plate was 50 μL. A11 compounds were tested at 10 assay concentrations in the range from 2×10^−6 M to 6×10^−11 M. The final DMSO concentration in the wells of the assay plate was 1% in all cases.
(§2) A radiometric protein kinase assay (33PanQinase® Activity Assay) was used for measuring the kinase activity of six protein kinases. A11 kinase assays were performed in 96-well FlashPlates™ from PerkinElmer (Boston, MA, USA). The assay for all protein kinases contained 70 mM HEPES-NaOH pH 7.5, 3 mM MgCl2, 3 mM MnCl2, 3 μM Na-orthovanadate, 1.2 mM DTT, 50 μg/mL PEG20000, ATP [γ-33P]-ATP (approx. 9×1005 cpm per well), protein kinase and substrate. The reaction cocktails were incubated at 30° C. for 60 minutes. The reaction was stopped with 50 μL of 2% (v/v) H3PO4, and plates were aspirated and washed two times with 200 μL 0.9% (w/v) NaCl. Incorporation of ^33Pi was determined with a microplate scintillation counter (Microbeta, Wallac).

CDK6 = CDK6 (Homo sapiens (Human), UniProt Q00534); assay: as above; type: biochemical
Chain of CDK6 (Q00534 whole entry): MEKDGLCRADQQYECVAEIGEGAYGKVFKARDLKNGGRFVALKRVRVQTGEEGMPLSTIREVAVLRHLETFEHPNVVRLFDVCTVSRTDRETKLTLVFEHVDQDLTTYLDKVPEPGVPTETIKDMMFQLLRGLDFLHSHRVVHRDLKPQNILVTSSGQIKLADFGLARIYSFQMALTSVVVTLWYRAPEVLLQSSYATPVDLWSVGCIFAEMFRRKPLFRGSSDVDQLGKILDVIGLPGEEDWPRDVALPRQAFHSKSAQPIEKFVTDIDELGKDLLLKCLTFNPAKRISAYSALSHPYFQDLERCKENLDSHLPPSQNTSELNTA
Chain of CDK6 (P24385 whole entry partner): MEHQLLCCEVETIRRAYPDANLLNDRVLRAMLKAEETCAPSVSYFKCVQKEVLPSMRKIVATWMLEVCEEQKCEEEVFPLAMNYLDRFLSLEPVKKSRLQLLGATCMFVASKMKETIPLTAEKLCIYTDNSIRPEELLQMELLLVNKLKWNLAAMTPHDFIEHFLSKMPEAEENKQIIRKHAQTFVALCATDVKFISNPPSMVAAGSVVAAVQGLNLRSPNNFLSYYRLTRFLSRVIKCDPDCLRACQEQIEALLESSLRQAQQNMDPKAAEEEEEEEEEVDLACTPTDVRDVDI
Protocol: as §1, §2

[1] = test system: drug-sensitive cell lines of Table 2 (EFM-19, MDA-MB-453, T-47D, ZR-75-1, NCI-H441, OVTOKO, NCI-H1838); assay: Cell Line Growth Retardation Assay, sensitive cohort; type: cell-based, human; conditions: for IC50: geometric mean over sensitive cohort, 6 days growth, read-out: AvgSensIC50; for Ther Window: average IC50 drug-resistant group divided by average IC50 drug-sensitive group
Protocol: (§3) Cells were seeded at densities of 1,000-5,000 cells per well in 48-well tissue culture plates. After a 24 hours rest period, cells were treated with compound at 10 μM, 2 μM, 0.4 μM, 0.08 μM, 0.016 μM, and 0.0032 μM. A group of cells were treated with the vehicle in which the compound was prepared and served as a control. The cells were grown in the presence of compounds for 6 days and were counted on day 0 and day 6. A11 cell counting was performed using a Synentec Cellavista plate imager. […] Growth inhibition was calculated as a ratio of cell population doublings in the presence of compound versus the absence of compound. […] IC50 values for each compound (see Table 3; reported in μM) were calculated by fitting curves to data points from each dose-response assay using the Proc NLIN function in SAS for Windows version 9.2 (SAS Institute, Inc.).
(§4) These sensitive and resistant cohorts were interrogated for response to each compound, and IC50s were calculated for each cell line using the same technique described above. Average IC50s for the sensitive and resistant cohorts were calculated as geometric means of the group. “Therapeutic Window” for each compound was calculated by dividing the average IC50 for the drug-resistant group by the average IC50 for the drug-sensitive group.

[2] = test system: drug-resistant cell lines of Table 2 (NCI-H1437, OV207, HCC1806, NCI-H2172); assay: Cell Line Growth Retardation Assay, resistant cohort; type: cell-based, human; conditions: geometric mean over resistant cohort, 6 days growth, read-out: AvgResIC50
Protocol: as §3, §4

Chain of CDK4 (P11802 whole entry): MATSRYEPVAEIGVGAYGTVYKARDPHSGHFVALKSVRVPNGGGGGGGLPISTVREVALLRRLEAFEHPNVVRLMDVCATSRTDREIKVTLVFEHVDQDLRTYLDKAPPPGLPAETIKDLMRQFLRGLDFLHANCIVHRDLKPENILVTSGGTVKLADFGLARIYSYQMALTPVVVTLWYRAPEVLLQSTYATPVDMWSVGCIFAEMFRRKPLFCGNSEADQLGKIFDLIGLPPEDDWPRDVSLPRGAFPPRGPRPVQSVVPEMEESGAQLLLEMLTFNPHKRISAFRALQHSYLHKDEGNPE
Chain of CDK4 (P24385 whole entry partner): as the sequence (P24385 whole entry partner) above

| Compound | Ki (CDK4) [nM] | Ki (CDK6) [nM] | IC50 ([1]; Homo sapiens, […]) [nM] | IC50 ([2]; Homo sapiens, […]) [nM] | IC50 [1] [nM] | IC50 [2] [nM] | Ther Window [1] |
| --- | --- | --- | --- | --- | --- | --- | --- |
| Cc1nc2c(F)cc(-c3nc(Nc4ccc(CN5CCO[C@@](C)(C[C@@H](C)O)C5)cn4)ncc3F)cc2n1C(C)C (single isomer, unassigned) [Compound A52] | 3.55 | 15.4 | 350 | 1000 | – | – | 2.82 |
| Cc1nc2c(F)cc(-c3nc(Nc4ccc(CN5CCO[C@@](C)(C[C@H](C)O)C5)cn4)ncc3F)cc2n1C(C)C (single isomer, unassigned) [Compound A53] | 2.49 | 11.9 | 210 | 1000 | – | – | 4.85 |
| CCN1CCN(Cc2ccc(Nc3ncc(F)c(-c4cc(F)c5nc(C)n(C(C)C)c5c4)n3)nc2)CC1 [Abemaciclib FB, Abemaciclib, reference compound] | – | – | – | – | 100 | 670 | 6.73 |
| Cc1nc2c(F)cc(-c3nc(Nc4ccc(CN5CCOC(C)(CCN(C)C)C5)cn4)ncc3F)cc2n1C(C)C (centres unmarked) [Compound A4] | 1.16 | 5.09 | 160 | 960 | – | – | 5.80 |
| Cc1nc2c(F)cc(-c3nc(Nc4ccc(CN5CCO[C@]6(CCNC6)C5)cn4)ncc3F)cc2n1C(C)C [Compound A35] | – | – | 190 | 1000 | – | – | 5.36 |
| Cc1nc2c(F)cc(-c3nc(Nc4ccc(CN5CCOC6(CCOC6)C5)cn4)ncc3F)cc2n1C(C)C (centres unmarked) [Compound A40] | 2.27 | 7.99 | 450 | 980 | – | – | 2.18 |
| Cc1nc2c(F)cc(-c3nc(Nc4ccc(CN5CCO[C@@]6(CCN(C(=O)OC(C)(C)C)C6)C5)cn4)ncc3F)cc2n1C(C)C [Compound A41, tert-butyl (S)-9-((6-((5-fluoro-4-(4-fluoro-1-isopropyl-2-methyl-1H-benzo[d]imidazol-6-yl)pyrimidin-2-yl)amino)pyridin-3-yl)methyl)-6-oxa-2,9-diazaspiro[4.5]decane-2-carboxylate] | 11.3 | 73.9 | – | – | – | – | – |
| Cc1nc2c(F)cc(-c3nc(Nc4ccc(CN5CCO[C@]6(CCN(C(=O)OC(C)(C)C)C6)C5)cn4)ncc3F)cc2n1C(C)C [Compound A42] | 6.47 | 34.9 | – | – | – | – | – |
| C=CC[C@@]1(C)CN(Cc2ccc(Nc3ncc(F)c(-c4cc(F)c5nc(C)n(C(C)C)c5c4)n3)nc2)CCO1 [Compound A45, (S)—N-(5-((2-allyl-2-methylmorpholino)methyl)pyridin-2-yl)-5-fluoro-4-(4-fluoro-1-isopropyl-2-methyl-1H-benzo[d]imidazol-6-yl)pyrimidin-2-amine] | 3.43 | 1.43 | 780 | 1000 | – | – | 1.29 |
| CCCC1(C)CN(Cc2ccc(Nc3ncc(F)c(-c4cc(F)c5nc(C)n(C(C)C)c5c4)n3)nc2)CCO1 (centres unmarked) [Compound A46] | 5.08 | 1.95 | 790 | 1000 | – | – | 1.26 |
| Cc1nc2c(F)cc(-c3nc(Nc4ccc(CN5CCOC(C)(C)C5)cn4)ncc3F)cc2n1C(C)C [Compound A48] | 1.77 | 1.08 | 640 | 1000 | – | – | 1.56 |
| Cc1nc2c(F)cc(-c3nc(Nc4ccc(CN5CCOC(C)(CO)C5)cn4)ncc3F)cc2n1C(C)C (centres unmarked) [Compound A51] | 8 | 38.4 | 620 | 1000 | – | – | 1.62 |
| CCOCC[C@]1(C)CN(Cc2ccc(Nc3ncc(F)c(-c4cc(F)c5nc(C)n(C(C)C)c5c4)n3)nc2)CCO1 [Compound A54] | 26.9 | 108 | 1000 | 1000 | – | – | 1.00 |
| Cc1nc2c(F)cc(-c3nc(Nc4ccc(CN5CCO[C@](C)(CC(=O)N6CCC6)C5)cn4)ncc3F)cc2n1C(C)C [Compound A58, (R)-1-(azetidin-1-yl)-2-(4-((6-((5-fluoro-4-(4-fluoro-1-isopropyl-2-methyl-1H-benzo[d]imidazol-6-yl)pyrimidin-2-yl)amino)pyridin-3-yl)methyl)-2-methylmorpholin-2-yl)ethan-1-one] | 2.64 | 19.8 | 340 | 1000 | – | – | 2.94 |
| Cc1nc2c(F)cc(-c3nc(Nc4ccc(CN5CC6(CCC6)C5)cn4)ncc3F)cc2n1C(C)C [Compound A63, N-(5-((2-azaspiro[3.3]heptan-2-yl)methyl)pyridin-2-yl)-5-fluoro-4-(4-fluoro-1-isopropyl-2-methyl-1H-benzo[d]imidazol-6-yl)pyrimidin-2-amine] | 0.75 | 3.14 | 100 | 500 | – | – | 5.03 |

Second part, led by results:

| Ki (CDK4) [nM] | Ki (CDK6) [nM] | IC50 ([1]; Homo sapiens, […]) [nM] | IC50 ([2]; Homo sapiens, […]) [nM] | IC50 [1] [nM] | IC50 [2] [nM] | Compound | Ther Window [1] |
| --- | --- | --- | --- | --- | --- | --- | --- |
| 0.04 | 0.16 | – | – | 40 | 130 | Cc1nc2c(F)cc(-c3nc(Nc4ccc(CN5CCOC(C)(CC(C)N(C)C)C5)cn4)ncc3F)cc2n1C(C)C (centres unmarked) [Compound A24] | 3.02 |
| 0.8 | 3.47 | – | – | 120 | 790 | Cc1nc2c(F)cc(-c3nc(Nc4ccc(CN5CCOC(C)(CC(C)N(C)C)C5)cn4)ncc3F)cc2n1C(C)C (centres unmarked) [Compound A25] | 6.52 |
| – | – | 200 | 1000 | – | – | Cc1nc2c(F)cc(-c3nc(Nc4ccc(CN5CCO[C@@]6(CCNC6)C5)cn4)ncc3F)cc2n1C(C)C [Compound A34, (R)—N-(5-((6-oxa-2,9-diazaspiro[4.5]decan-9-yl)methyl)pyridin-2-yl)-5-fluoro-4-(4-fluoro-1-isopropyl-2-methyl-1H-benzo[d]imidazol-6-yl)pyrimidin-2-amine] | 5.02 |
| 2.4 | 14.8 | 260 | 1000 | – | – | Cc1nc2c(F)cc(-c3nc(Nc4ccc(CN5CCO[C@](C)(CC(=O)N6CC(F)(F)C6)C5)cn4)ncc3F)cc2n1C(C)C [Compound A56, (R)-1-(3,3-difluoroazetidin-1-yl)-2-(4-((6-((5-fluoro-4-(4-fluoro-1-isopropyl-2-methyl-1H-benzo[d]imidazol-6-yl)pyrimidin-2-yl)amino)pyridin-3-yl)methyl)-2-methylmorpholin-2-yl)ethan-1-one] | 3.76 |
| 3.91 | 24 | 390 | 1000 | – | – | CCN(CC)C(=O)C[C@]1(C)CN(Cc2ccc(Nc3ncc(F)c(-c4cc(F)c5nc(C)n(C(C)C)c5c4)n3)nc2)CCO1 [Compound A57, (R)-2-(4-((6-((5-fluoro-4-(4-fluoro-1-isopropyl-2-methyl-1H-benzo[d]imidazol-6-yl)pyrimidin-2-yl)amino)pyridin-3-yl)methyl)-2-methylmorpholin-2-yl)-N,N-diethylacetamide] | 2.56 |
| 1.53 | 9.53 | 220 | 940 | – | – | Cc1nc2c(F)cc(-c3nc(Nc4ccc(CN5CCC56COC6)cn4)ncc3F)cc2n1C(C)C [Compound A61, N-(5-((6-oxa-1-azaspiro[3.3]heptan-1-yl)methyl)pyridin-2-yl)-5-fluoro-4-(4-fluoro-1-isopropyl-2-methyl-1H-benzo[d]imidazol-6-yl)pyrimidin-2-amine] | 4.27 |
| 0.9 | 4.53 | 150 | 730 | – | – | Cc1nc2c(F)cc(-c3nc(Nc4ccc(CN5CC6(C5)CC(F)(F)C6)cn4)ncc3F)cc2n1C(C)C [Compound A64, N-(5-((6,6-difluoro-2-azaspiro[3.3]heptan-2-yl)methyl)pyridin-2-yl)-5-fluoro-4-(4-fluoro-1-isopropyl-2-methyl-1H-benzo[d]imidazol-6-yl)pyrimidin-2-amine] | 4.87 |
